From ChEMBL document CHEMBL4673352, “Discovery of AZD4573, a Potent and Selective Inhibitor of CDK9 That Enables Short Duration of Target Engagement for the Treatment of Hematological Malignancies” (J Med Chem, 2020) come the findings set out here.

Series [1] is described as follows: Half-life in Beagle dog at 5.2 umol/kg, iv administered over 0.25 hrs formulated as solution in 5% DMSO. Type of series: ADME, organism-based, Canis lupus familiaris. The conditions noted are these: in vivo, dose 5.2 µmol/kg.
Series [2] can be described thus: Drug metabolism in human hepatocytes assessed as 4-(4-(2-((1S,3R)-3-acetamidocyclohexanecarboxamido)-5-chloropyridin-4-yl)-1H-pyrazol-5-yl)butanoic acid metabolite formation. The series is classed as ADME, cell-based, Hepatocyte.
Series [3] can be described thus: Drug metabolism in human liver microsome assessed as (1S,3R)-3-acetamido-N-(5-chloro-4-(5-(4-hydroxybutyl)-1H-pyrazol-4-yl)pyridin-2-yl)cyclohexanecarboxamide formation at 10 uM measured after 1 hr in presence of NADPH by LC-UV-MS analysis. Type of series: ADME. The following applies: microsomes. A general note: Liver microsomes are vesicles of endoplasmic reticulum, rich in cytochrome P450 enzymes.

The nature of series [4]: Drug metabolism in human hepatocytes assessed as (1S,3R)-3-acetamido-N-(5-chloro-4-(5-(4-hydroxybutyl)-1H-pyrazol-4-yl)pyridin-2-yl)cyclohexanecarboxamide metabolite formation. The series is classed as ADME, cell-based, Hepatocyte.
Series [5] in a line: Solubility of compound in pH 4 0.1 M acetate buffer using crystalline form of sample. Type of series: physicochemical.
Series [6] is filed under the species Homo sapiens. The experiment in a line: Selectivity ratio of IC50 for human recombinant N-terminal GST-TEV tagged CDK12 (696 to 1082 residues)/full length human CyclinK expressed in baculovirus expression system to IC50 for Inhibition of recombinant full length human N-terminal GST-fused CDK9 (1 to 372 residues)/His-tagged CyclinT1 (1 to 726 residues) expressed in baculovirus infected insect cells.

In series [7] the target is Cyclin-dependent kinase 7/ cyclin H (Homo sapiens) (UniProt P51946+P50613). The series is described as follows: Inhibition of human recombinant full-length CDK7/CyclinH using peptide as substrate incubated for 40 mins in presence of [gamma-33P]ATP at 1 uM by scintillation counting method relative to control. Type of series: protein-complex assay.
The species named for series [8] is Homo sapiens. The experiment in a line: Selectivity ratio of IC50 for CDK3 (unknown origin) in presence of 5 mM ATP to IC50 for Inhibition of recombinant full length human N-terminal GST-fused CDK9 (1 to 372 residues)/His-tagged CyclinT1 (1 to 726 residues) expressed in baculovirus infected insect cells.
In series [9] the target is CDK9/cyclin T1 (Homo sapiens, UniProt O60563+P50750). The series is described as follows: Binding affinity to human CDK9/CyclinT assessed as dissociation rate constant by surface plasmon resonance analysis. The series is classed as protein-complex assay. On the technique in general: In SPR one partner is held on a chip, and binding of the other changes the refractive index at the surface.

The target in series [10] is T1, Cyclin-dependent kinase 9 (Homo sapiens, UniProt P50750).
Series [11] is filed under the species Homo sapiens. The experiment in a line: Selectivity ratio of IC50 for recombinant full length human CDK2/CyclinE expressed in insect cells to IC50 for Inhibition of recombinant full length human N-terminal GST-fused CDK9 (1 to 372 residues)/His-tagged CyclinT1 (1 to 726 residues) expressed in baculovirus infected insect cells.
A short description of series [12]: Drug metabolism in human liver microsomes assessed as 3-(4-(2-((1S,3R)-3-acetamidocyclohexanecarboxamido)-5-fluoropyridin-4-yl)-1H-pyrazol-5-yl)-2,2-dimethylpropanoic acid formation at 10 uM measured after 1 hr in presence of NADPH by LC-UV-MS analysis. The series is classed as ADME, Microsome.
For series [13], the target named is T1, Cyclin-dependent kinase 9. The series is described as follows: Inhibition of CDK9 in human MV4-11 cells assessed as induction of caspase-3/7 activation measured after 6 hrs followed by Caspase-glo reagent based assay. The series is classed as cell-based.
Series [14] is described as follows: Drug metabolism in human liver microsomes assessed as (1S,3R)-3-acetamido-N-(5-fluoro-4-(6-hydroxy-5,5-dimethyl-5,6-dihydro-4H-pyrrolo[1,2-b]pyrazol-3-yl)pyridin-2-yl)cyclohexanecarboxamide formation at 10 uM measured after 1 hr in presence of NADPH by LC-UV-MS analysis. The series is classed as ADME, Microsome.
Series [15] in a line: Drug metabolism in human hepatocytes assessed as 3-(4-(2-((1S,3R)-3-acetamidocyclohexanecarboxamido)-5-fluoropyridin-4-yl)-1H-pyrazol-5-yl)-2,2-dimethylpropanoic acid metabolite formation. The series is classed as ADME, cell-based, Hepatocyte.
Series [16] is described as follows: Half-life in cynomolgus monkey at 0.46 umol/kg, iv administered over 0.25 hrs formulated as solution in DMA/PEG400/Tween80. The series is classed as ADME, organism-based, Macaca fascicularis. The conditions noted are these: in vivo, dose 0.46 µmol/kg.
Series [17] has as its target Glycogen synthase kinase-3 alpha (Homo sapiens, UniProt P49840). The series is described as follows: Inhibition of kinase tracer 236 binding to N-terminal GST-tagged human full length GSK3alpha expressed in baculovirus expression system by Lanthascreen Eu kinase binding assay. The following applies: dose 0.1 µM, time 60.0 min. In general terms: TR-FRET usually uses a lanthanide donor and a delayed reading to cut background.

In series [18] the target is Dual specificity mitogen-activated protein kinase kinase 7 (Homo sapiens) (UniProt O14733). The experiment in a line: Inhibition of human recombinant […] using NK1a1 as substrate at 1 uM incubated for 40 mins in presence of [gamma32P]-ATP by scintillation counting method relative to control.
Series [19] concerns the target Dual specificity tyrosine-phosphorylation-regulated kinase 2 (Homo sapiens, UniProt Q92630). The experiment in a line: Inhibition of DYRK2 (unknown origin) in presence of 5 mM ATP.
The target in series [20] is T2, Glycogen synthase kinase-3 beta (Homo sapiens, UniProt P49841). The experiment in a line: Inhibition of GSK3beta (unknown origin) in presence of 5 mM ATP.
Target sequence in this assay (P49841 whole entry, canonical isoform): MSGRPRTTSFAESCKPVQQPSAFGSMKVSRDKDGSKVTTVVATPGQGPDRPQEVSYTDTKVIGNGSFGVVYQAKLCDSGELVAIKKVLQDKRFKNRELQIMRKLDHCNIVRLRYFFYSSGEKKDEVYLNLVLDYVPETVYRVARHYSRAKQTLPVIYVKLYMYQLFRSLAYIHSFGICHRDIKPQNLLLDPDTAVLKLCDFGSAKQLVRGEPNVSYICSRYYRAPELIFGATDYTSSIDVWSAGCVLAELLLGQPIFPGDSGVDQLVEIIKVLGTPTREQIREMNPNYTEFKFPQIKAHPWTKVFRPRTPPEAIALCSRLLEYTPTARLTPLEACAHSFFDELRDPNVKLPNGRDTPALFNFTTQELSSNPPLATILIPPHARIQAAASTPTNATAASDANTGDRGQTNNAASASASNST
Series [21] addresses Casein kinase I isoform gamma-1 (Homo sapiens, UniProt Q9HCP0). The experiment in a line: Inhibition of CK1gamma1 (unknown origin) in presence of 5 mM ATP.
Series [22] concerns the target Mitogen-activated protein kinase kinase kinase 9 (Homo sapiens) (UniProt P80192). The experiment in a line: Inhibition of human recombinant MAP3K9 using casein as substrate at 1 uM incubated for 40 mins in presence of [gamma32P]-ATP by scintillation counting method relative to control.
A short description of series [23]: Clearance in mouse plasma at 2.3 umol/kg, iv formulated as solution. The conditions noted are these: dose 2.3 µmol/kg. The series is classed as ADME, organism-based.
A short description of series [24]: Volume of distribution at steady state in mouse at 2.3 umol/kg, iv formulated as solution. The series is classed as ADME, organism-based. The following applies: in vivo, dose 2.3 µmol/kg, read-out: Vdss.
Series [25] is described as follows: Half-life in Beagle dog at 0.23 umol/kg, iv administered over 0.25 hrs formulated as solution in 10% DMSO/90% water. The conditions noted are these: in vivo, dose 0.23 µmol/kg. Type of series: ADME, organism-based, Canis lupus familiaris.
A short description of series [26]: Volume of distribution at steady state in cynomolgus monkey at 0.46 umol/kg, iv administered over 0.25 hrs formulated as solution in DMA/PEG400/Tween80. Type of series: ADME, organism-based, Macaca fascicularis. The conditions noted are these: in vivo, dose 0.46 µmol/kg, read-out: Vdss.
In series [27] the target is Cyclin-dependent kinase 9 (Mus musculus) (UniProt Q99J95). The series is described as follows: In-vivo inhibition of CDK9 in mouse xenografted with human MV4-11 cells assessed as reduction in Mcl-1 at 5 to 15 mg/kg, ip BID administered at 2 hrs dose interval with 2 days on and 5 days off dosing schedule by Western blot analysis. The conditions noted are these: dose 5-15 mg/kg. The series is classed as functional, organism-based.

Series [28] deals with Mitogen-activated protein kinase 8 (Homo sapiens, UniProt P45983). The experiment in a line: Inhibition of human recombinant His-tagged JNK1 expressed in baculovirus expression system at 0.1 uM incubated for 60 mins by TR-FRET based LanthaScreen Eu kinase binding assay relative to control.
The target in series [29] is T2, Glycogen synthase kinase-3 beta. The experiment in a line: Inhibition of GSK3beta (unknown origin) at 0.1 uM incubated for 60 mins by TR-FRET based LanthaScreen Eu kinase binding assay relative to control.
Target sequence in this assay (P49841 whole entry, looked up, canonical isoform): as the sequence (P49841 whole entry, canonical isoform) above

Converted amounts (≈) assume the structure as drawn. The source made the active and inactive calls. The calls are words filed in the database; no cut-off is given here.

T1 sequence (P50750 whole entry, the tested form may be a part): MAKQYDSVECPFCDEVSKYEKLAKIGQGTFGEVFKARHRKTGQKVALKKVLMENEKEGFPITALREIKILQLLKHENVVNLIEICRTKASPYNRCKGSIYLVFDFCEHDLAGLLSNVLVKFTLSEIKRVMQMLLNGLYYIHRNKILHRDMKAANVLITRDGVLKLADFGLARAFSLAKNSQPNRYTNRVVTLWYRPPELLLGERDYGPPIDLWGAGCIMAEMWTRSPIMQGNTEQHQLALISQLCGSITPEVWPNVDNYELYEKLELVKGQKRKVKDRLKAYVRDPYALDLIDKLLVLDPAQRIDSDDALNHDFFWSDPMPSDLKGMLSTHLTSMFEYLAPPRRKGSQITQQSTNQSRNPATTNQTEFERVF
Sequence of Glycogen synthase kinase-3 alpha (P49840 2-483 limits assumed): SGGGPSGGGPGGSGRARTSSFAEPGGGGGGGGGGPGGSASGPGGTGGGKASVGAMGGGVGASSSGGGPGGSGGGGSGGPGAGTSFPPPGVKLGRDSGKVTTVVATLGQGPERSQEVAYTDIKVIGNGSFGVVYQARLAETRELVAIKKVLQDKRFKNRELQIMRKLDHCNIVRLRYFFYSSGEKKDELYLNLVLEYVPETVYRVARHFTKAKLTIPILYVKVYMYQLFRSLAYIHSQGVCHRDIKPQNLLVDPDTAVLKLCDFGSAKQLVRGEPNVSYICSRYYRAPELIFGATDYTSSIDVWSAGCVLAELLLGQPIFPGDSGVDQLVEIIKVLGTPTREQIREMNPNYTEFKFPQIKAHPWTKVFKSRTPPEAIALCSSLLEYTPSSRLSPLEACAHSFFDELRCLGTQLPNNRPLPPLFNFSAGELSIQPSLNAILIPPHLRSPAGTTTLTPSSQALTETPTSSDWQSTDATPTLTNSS
Sequence of Dual specificity mitogen-activated protein kinase kinase 7 (Homo sapiens) (O14733 whole entry): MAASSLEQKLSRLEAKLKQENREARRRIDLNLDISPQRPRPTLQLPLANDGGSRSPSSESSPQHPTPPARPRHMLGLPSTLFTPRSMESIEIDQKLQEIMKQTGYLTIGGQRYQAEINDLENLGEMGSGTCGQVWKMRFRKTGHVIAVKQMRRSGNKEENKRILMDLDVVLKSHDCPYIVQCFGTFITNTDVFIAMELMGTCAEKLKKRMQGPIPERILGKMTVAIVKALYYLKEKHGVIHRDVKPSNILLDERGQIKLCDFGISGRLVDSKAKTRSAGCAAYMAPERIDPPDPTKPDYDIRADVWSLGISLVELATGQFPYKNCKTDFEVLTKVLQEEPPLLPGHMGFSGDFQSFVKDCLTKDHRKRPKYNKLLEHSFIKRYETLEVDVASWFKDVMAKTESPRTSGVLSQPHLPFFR
Sequence of Mitogen-activated protein kinase 8 (P45983 whole entry): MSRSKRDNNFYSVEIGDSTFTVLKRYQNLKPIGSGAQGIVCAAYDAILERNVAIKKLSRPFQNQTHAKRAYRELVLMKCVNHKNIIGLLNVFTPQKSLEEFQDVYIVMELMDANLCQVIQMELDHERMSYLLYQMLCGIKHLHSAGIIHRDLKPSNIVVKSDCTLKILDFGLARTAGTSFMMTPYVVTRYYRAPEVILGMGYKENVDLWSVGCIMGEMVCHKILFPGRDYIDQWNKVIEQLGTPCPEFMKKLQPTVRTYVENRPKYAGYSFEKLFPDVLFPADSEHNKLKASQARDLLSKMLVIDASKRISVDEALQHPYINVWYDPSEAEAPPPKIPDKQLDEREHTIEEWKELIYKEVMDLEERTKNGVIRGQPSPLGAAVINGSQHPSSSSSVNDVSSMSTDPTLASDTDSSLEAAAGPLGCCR
Sequence of Casein kinase I isoform gamma-1 (Q9HCP0 whole entry, canonical isoform): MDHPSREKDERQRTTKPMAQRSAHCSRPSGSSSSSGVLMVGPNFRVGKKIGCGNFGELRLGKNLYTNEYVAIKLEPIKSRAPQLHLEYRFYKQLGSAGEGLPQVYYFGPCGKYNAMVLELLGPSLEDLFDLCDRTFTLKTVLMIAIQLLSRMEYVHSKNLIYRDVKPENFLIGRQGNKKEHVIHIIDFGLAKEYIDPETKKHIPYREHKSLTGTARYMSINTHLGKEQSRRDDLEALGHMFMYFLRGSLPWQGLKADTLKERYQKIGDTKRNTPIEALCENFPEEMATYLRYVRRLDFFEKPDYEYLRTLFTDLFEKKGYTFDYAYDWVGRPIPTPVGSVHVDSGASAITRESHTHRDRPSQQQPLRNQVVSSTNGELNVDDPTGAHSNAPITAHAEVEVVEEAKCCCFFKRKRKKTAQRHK
Sequence of Dual specificity tyrosine-phosphorylation-regulated kinase 2 (Q92630 whole entry): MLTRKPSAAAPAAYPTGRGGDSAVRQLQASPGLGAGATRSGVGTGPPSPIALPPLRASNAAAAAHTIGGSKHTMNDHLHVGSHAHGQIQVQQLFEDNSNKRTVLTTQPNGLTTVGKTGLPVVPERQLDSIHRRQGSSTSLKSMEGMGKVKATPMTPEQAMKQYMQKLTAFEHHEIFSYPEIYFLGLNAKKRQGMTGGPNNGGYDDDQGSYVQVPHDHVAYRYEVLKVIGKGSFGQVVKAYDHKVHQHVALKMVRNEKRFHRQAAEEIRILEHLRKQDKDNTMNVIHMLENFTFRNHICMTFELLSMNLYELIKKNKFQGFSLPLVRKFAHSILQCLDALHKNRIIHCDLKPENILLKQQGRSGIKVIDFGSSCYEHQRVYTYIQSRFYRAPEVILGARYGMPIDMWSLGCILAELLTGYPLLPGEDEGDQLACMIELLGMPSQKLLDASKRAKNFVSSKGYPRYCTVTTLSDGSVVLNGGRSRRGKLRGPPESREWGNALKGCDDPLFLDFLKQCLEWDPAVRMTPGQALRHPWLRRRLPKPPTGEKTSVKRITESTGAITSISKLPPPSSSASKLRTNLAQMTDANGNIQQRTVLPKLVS
Sequence of Cyclin-dependent kinase 9 (Mus musculus) (Q99J95 whole entry): as the sequence (P50750 whole entry, the tested form may be a part) above, with S17T, R37K, K40Q, N258K, Y262F counted along it
Sequence of Mitogen-activated protein kinase kinase kinase 9 (Homo sapiens) (P80192 whole entry, looked up): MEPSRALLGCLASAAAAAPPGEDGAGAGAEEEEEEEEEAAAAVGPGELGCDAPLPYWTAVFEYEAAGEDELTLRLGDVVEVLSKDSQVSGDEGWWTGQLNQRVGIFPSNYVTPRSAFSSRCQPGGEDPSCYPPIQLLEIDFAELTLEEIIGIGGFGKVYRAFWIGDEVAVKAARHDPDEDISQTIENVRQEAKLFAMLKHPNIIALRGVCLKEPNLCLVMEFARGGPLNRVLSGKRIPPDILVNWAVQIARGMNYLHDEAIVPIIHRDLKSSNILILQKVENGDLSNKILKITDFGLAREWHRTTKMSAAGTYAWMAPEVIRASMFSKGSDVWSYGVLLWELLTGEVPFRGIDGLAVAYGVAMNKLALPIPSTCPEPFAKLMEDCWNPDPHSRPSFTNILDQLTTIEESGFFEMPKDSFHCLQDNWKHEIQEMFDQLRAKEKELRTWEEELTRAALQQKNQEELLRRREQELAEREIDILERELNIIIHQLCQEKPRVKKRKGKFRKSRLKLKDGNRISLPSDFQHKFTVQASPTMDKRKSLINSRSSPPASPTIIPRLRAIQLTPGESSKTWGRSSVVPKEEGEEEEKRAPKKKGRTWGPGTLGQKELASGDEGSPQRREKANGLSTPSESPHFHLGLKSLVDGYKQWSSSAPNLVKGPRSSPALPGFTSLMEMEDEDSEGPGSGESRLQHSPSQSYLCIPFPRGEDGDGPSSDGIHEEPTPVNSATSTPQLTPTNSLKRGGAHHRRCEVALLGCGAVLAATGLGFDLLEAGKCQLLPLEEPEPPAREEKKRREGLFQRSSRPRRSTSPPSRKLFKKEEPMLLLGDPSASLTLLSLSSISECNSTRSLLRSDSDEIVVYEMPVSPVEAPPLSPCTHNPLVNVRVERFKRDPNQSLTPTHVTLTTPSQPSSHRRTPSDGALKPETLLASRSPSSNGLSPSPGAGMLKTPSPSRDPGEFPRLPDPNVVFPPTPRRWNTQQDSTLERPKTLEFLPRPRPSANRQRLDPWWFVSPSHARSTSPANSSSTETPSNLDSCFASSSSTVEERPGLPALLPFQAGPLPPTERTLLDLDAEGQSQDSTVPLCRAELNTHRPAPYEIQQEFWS

`CC(=O)N[C@@H]1CCC[C@H](C(=O)Nc2cc(-c3cnn4c3CCCC4)c(Cl)cn2)C1`: in series [1], the half-life is 30 min. Also, the Drug metabolism result in series [2], in series [3] and in [4] was “Metabolite_Detected” throughout. Further, the thermodynamic solubility in series [5] was 210 µg/mL (≈ 505 µM).

Take `CC(=O)N[C@@H]1CCC[C@H](C(=O)Nc2cc(-c3cnn4c3CC(C)(C)C4)c(F)cn2)C1`: the values for the Ratio IC50 in series [6], in series [8] and in [11] were 16, 5 and 16, respectively. For the same compound, the inhibition in series [7] came out at 92%. Also, in series [9], the koff is reported as 569 10^-6/s. In series [10], this compound registered an IC50 of more than 3 µM. Moreover, the Drug metabolism entry in series [12], in series [14] and in series [15] was “Metabolite_Detected” throughout. In addition, the EC50 in series [13] is 0.029 µM.

Regarding `CC(=O)N[C@@H]1CCC[C@H](C(=O)Nc2cc(-c3cnn4c3CC(C)(C)C4)c(Cl)cn2)C1` [ZEMIRCICLIB], the half-life in [16] is 53.4 min; in [25], 39.6 min. Moreover, the inhibition in [17] stood at 96%; in series [18], 85%; in [22] it was 82%; in series [28] it was 84%; in series [29], 100%. The IC50 in series [19] was 8.62 µM; in series [20], 0.247 µM; in series [21], 5.52 µM. In addition, the clearance in series [23] worked out at 55 mL/min/kg. The Vd was 0.45 L/kg in series [24] and 1.3 L/kg in [26]. In [27], the inhibition entry was “Active”.

The half-life is how long it takes for the measured level to halve. What is called thermodynamic solubility is solubility found after equilibrating the solid with the medium. As usually defined, the inhibition is the share of the control response that was lost under treatment. What is called IC50 is the point on the concentration scale where inhibition reaches its midpoint. By EC50 is commonly meant the concentration that produces a half-maximal response. Usually clearance stands for the rate of elimination divided by the concentration.
